What was measured:
GPR40-Galpha16 = GPR40-Galpha16 (Homo sapiens, UniProt O14842+P30679); experiment: Agonist activity at human GPR40/Galpha-16 expressed in HEK293 cells by Fluo4-AM dye based intracellular calcium flux assay; format: cell-based
[1] = target: Free fatty acid receptor 1 (Homo sapiens, UniProt O14842); experiment: Agonist activity at human GPR40 expressed in HEK293 cells by Fluo4-AM dye based intracellular calcium flux assay; format: functional, cell-based
[2] = Inhibition of bile acid efflux in Sprague-Dawley rat hepatocytes assessed as decrease in biliary excretion index incubated for 15 mins followed by compound washout for 15 mins and subsequent addition of compounds with d8-TCA measured after 15 mins by LC-MS/MS analysis; format: toxicity, cell-based, Hepatocyte; settings: 0.5 h, at 5 to 25 µM, dose 5-25 µM, time 30 min
Hepatocyte [3] = experiment: Disruption of plasma membrane integrity in human primary hepatocytes assessed as LDH release in cytosol upto 100 uM incubated for 24 hrs by absorbance based assay; format: toxicity, cell-based
Hepatocyte [4] = experiment: Disruption of plasma membrane integrity in rat primary hepatocytes assessed as LDH release in cytosol at 100 uM incubated for 24 hrs by absorbance based assay; format: toxicity, cell-based
[5] = Cmax in Sprague-Dawley rat at 1 mg/kg, iv by LC-MS analysis; format: ADME, organism-based; set-up: dose 1 mg/kg, route iv; settings: in vivo
[6] = Oral bioavailability in Sprague-Dawley rat […] by LC-MS analysis; format: ADME, organism-based; settings: in vivo
[7] = MRTlast in Sprague-Dawley rat at 1 mg/kg, iv by LC-MS analysis; format: ADME, organism-based; settings: in vivo
[8] = AUC (0 to t) in Sprague-Dawley rat at 1 mg/kg, iv by LC-MS analysis; format: ADME, organism-based; set-up: dose 1 mg/kg, route iv; settings: in vivo
[9] = Tmax in Sprague-Dawley rat at 10 mg/kg, po by LC-MS analysis; format: ADME, organism-based; settings: in vivo
[10] = Metabolic stability in human liver microsomes assessed as half life; format: ADME, Microsome
[11] = Metabolic stability in rat liver microsomes assessed as intrinsic clearance; format: ADME, Microsome; settings: read-out: CLH
[12] = Cmax in Sprague-Dawley rat at 10 mg/kg, po by LC-MS analysis; format: ADME, organism-based; set-up: dose 10 mg/kg, route po; settings: in vivo
[13] = Metabolic stability in rat liver microsomes assessed as half life; format: ADME, Microsome
[14] = MRTlast in Sprague-Dawley rat at 10 mg/kg, po by LC-MS analysis; format: ADME, organism-based; settings: in vivo
Hepatocyte [15] = experiment: Cytotoxicity against human primary hepatocytes assessed as cell viability at 1 to 100 uM incubated for 24 hrs by WST-1 assay; format: toxicity, cell-based; settings: dose 1-100 µM
[16] = Half life in Sprague-Dawley rat at 1 mg/kg, iv by LC-MS analysis; format: ADME, organism-based; settings: in vivo
[17] = AUC (0 to t) in Sprague-Dawley rat at 10 mg/kg, po by LC-MS analysis; format: ADME, organism-based; set-up: dose 10 mg/kg, route po; settings: in vivo
[18] = Half life in Sprague-Dawley rat at 10 mg/kg, po by LC-MS analysis; format: ADME, organism-based; settings: in vivo
[19] = Metabolic stability in human liver microsomes assessed as intrinsic clearance; format: ADME, Microsome

Free fatty acid receptor 1, sequence (O14842 whole entry): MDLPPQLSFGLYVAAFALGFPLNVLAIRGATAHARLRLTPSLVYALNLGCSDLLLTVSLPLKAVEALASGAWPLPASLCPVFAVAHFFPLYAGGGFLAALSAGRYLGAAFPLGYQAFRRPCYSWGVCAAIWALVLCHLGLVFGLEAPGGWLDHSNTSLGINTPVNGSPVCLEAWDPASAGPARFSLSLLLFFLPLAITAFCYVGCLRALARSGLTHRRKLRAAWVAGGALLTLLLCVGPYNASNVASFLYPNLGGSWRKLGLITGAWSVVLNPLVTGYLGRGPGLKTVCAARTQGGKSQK
GPR40-Galpha16, sequence (O14842 whole entry): as above
GPR40-Galpha16, sequence (P30679 whole entry): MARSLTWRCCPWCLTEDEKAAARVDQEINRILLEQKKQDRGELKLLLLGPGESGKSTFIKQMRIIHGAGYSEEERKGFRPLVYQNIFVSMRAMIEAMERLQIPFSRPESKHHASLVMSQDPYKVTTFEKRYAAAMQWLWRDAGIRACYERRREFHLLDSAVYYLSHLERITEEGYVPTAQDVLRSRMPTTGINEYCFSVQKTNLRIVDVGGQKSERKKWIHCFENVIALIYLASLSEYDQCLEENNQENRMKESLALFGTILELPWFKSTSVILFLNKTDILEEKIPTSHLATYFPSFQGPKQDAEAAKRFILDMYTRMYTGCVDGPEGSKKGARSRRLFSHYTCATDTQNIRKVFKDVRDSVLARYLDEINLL

For `CC#C[C@H](CC(=O)O)c1ccc(OCc2ccc(-c3cccc(OC)c3)cc2)cc1`, the EC50 (GPR40-Galpha16) was 93.3 nM.

With `Cc1cnccc1-c1cccc(COc2ccc([S+]([O-])CC(=O)O)cc2)c1` (racemic) the EC50 [1] was 2000 nM.

Molecule `Cc1cc(OCC2(C)COC2)cc(C)c1-c1cccc(COc2ccc([S+]([O-])CC(=O)O)cc2)c1` (racemic) has an EC50 [1] of 62.8 nM.

For `Cc1cc(OCCCN2CCOCC2)cc(C)c1-c1cccc(COc2ccc([S+]([O-])CC(=O)O)cc2)c1` (racemic), the EC50 [1] was 66.7 nM.

Molecule `Cc1noc(C)c1-c1cccc(COc2ccc([S+]([O-])CC(=O)O)cc2)c1` (racemic) has an EC50 [1] of 5380 nM.

With `Cc1ccccc1C#Cc1ccc(S(=O)(=O)CC(=O)O)cc1` the EC50 [1] was 4880 nM.

With `Cc1cccc(C)c1-c1ccc(COc2ccc(S(=O)(=O)CC(=O)O)cc2)cc1` the EC50 [1] was 716 nM.

For `Cc1cncc(C)c1-c1cccc(COc2ccc([S+]([O-])CC(=O)O)cc2)c1` (racemic), the EC50 [1] was 3100 nM.

For `Cc1cccc(C)c1-c1cccc(COc2ccc(S(=O)(=O)CC(=O)O)cc2)c1`, the EC50 [1] was 252 nM and the “inhibition (INH)” value [2] was “Dose-Dependent Effect”.

With `Cc1cccc(C)c1-c1cccc(COc2ccc([S@@+]([O-])CC(=O)O)cc2)c1` the Activity (Hepatocyte [3]) was “Non-Toxic”, the Activity (Hepatocyte [4]) was “Toxic” and the Cmax [5] was 858 ng/mL. For the same molecule, the bioavailability [6] was 87.5%, the MRT last [7] was 1.7 h and the AUC(0-t) [8] was 871 ng·h/mL. For the same molecule, the Tmax [9] was 2 h, the t1/2 [10] was 6.3 min and the microsomal CLint [11] was 6.3 µL/min/mg. For the same molecule, the Cmax [12] was 1230 ng/mL, the half-life [13] was 3.82 h and the MRT last [14] was 4.5 h. The Activity (Hepatocyte [15]) was “Non-Toxic”, the half-life [16] was 1.9 h and the AUC(0-t) [17] was 7620 ng·h/mL. The half-life [18] was 3.2 h and the CLH [19] was 8.8 µL/min/mg.

`O=C(O)C[S+]([O-])c1ccc(OCc2cccc(-c3ccncc3Cl)c2)cc1` (racemic) gave an EC50 [1] of 1000 nM.

`COc1ccc(F)c(-c2cccc(COc3ccc(S(=O)(=O)CC(=O)O)cc3)c2)c1` showed an EC50 [1] of 2900 nM.

For `CCCCC/C=C\C/C=C\CCCCCCCC(=O)O` [LINOLEIC ACID], the EC50 [1] was 6040 nM and the EC50 (GPR40-Galpha16) was 10100 nM.

`Cc1cccc(C)c1-c1ccc(COc2ccc([S+]([O-])CC(=O)O)cc2)cc1` (racemic) gave an EC50 [1] of 454 nM.

Reference: ChEMBL document CHEMBL5346928, “Discovery of orally effective and safe GPR40 agonists by incorporating a chiral, rigid and polar sulfoxide into β-position to the carboxylic acid” (Eur J Med Chem, 2023)
